Converted amounts (≈) assume the structure as drawn.
What follows are molecules tested on Mycobacterium tuberculosis (assay: Antibacterial activity against fluoroquinolone-resistant Mycobacterium tuberculosis H37Rv assessed as reduction in bacterial growth measured after 16 to 18 hrs by serial dilution method). Settings: time 16-18 hrs.
Format: functional
Work on COc1c(N2CCNC(C)C2)c(F)cc2c(=O)c(C(=O)O)cn(C3CC3)c12 (stereo not drawn) [GATIFLOXACIN] yielded an MIC90 of 0.06 µg/mL (≈ 0.16 µM).

The molecules below were run on Mycobacterium tuberculosis (assay: Antimycobacterial activity against extensively drug resistant Mycobacterium tuberculosis assessed as reduction in microbial growth). Settings: not given.
Format: functional
With CCOc1ccc(Br)c2c1B(O)O[C@@H]2CN the MIC50 was 0.4 µg/mL. Molecule CCCOc1ccc(Br)c2c1B(O)O[C@@H]2CN has an MIC50 of 0.38 µg/mL. CCCCOc1ccc(Br)c2c1B(O)O[C@@H]2CN gave an MIC50 of 0.45 µg/mL. With NC[C@@H]1OB(O)c2c(OCCO)ccc(Cl)c21 the MIC50 was 5 µg/mL. CCOc1ccc(Cl)c2c1B(O)O[C@@H]2CN gave an MIC50 of 0.3 µg/mL. Molecule NC[C@@H]1OB(O)c2c(OCCO)ccc(Br)c21 has an MIC50 of 10 µg/mL. Cl.NC[C@H]1OB(O)c2c(OCCO)ccc(Cl)c21 gave an MIC50 of 0.023 µg/mL. Molecule COc1ccc(Br)c2c1B(O)O[C@@H]2CN has an MIC50 of 0.1 µg/mL. Molecule CCCCOc1ccc(Cl)c2c1B(O)O[C@@H]2CN has an MIC50 of 0.6 µg/mL. Molecule NCC1OB(O)c2c(OCCc3ccccc3)ccc(Cl)c21 (stereo not drawn) has an MIC50 of 5 µg/mL. NCC1OB(O)c2c(Oc3ccccc3)ccc(Cl)c21 (stereo not drawn) showed an MIC50 of 5 µg/mL. For NCC1OB(O)c2c(OCc3ccccc3)ccc(Cl)c21 (stereo not drawn), the MIC50 was 5 µg/mL. With NC[C@H]1OB(O)c2c(OCCO)ccc(Br)c21 the MIC50 was 0.08 µg/mL. For COc1ccc(Cl)c2c1B(O)O[C@@H]2CN, the MIC50 was 0.1 µg/mL. In the case of CCCOc1ccc(Cl)c2c1B(O)O[C@@H]2CN, the MIC50 is reported as 0.16 µg/mL.

Each molecule was assayed on Mycobacterium tuberculosis (assay: Antitubercular activity against Multi-drug resistant Mycobacterium tuberculosis assessed as inhibition of bacterial growth incubated for 14 days by broth microdilution method). Settings: 336 h, time 14 day.
Format: functional
Work on COc1ncccc1Nc1cc2nc3ccccc3n(-c3ccc(OC(F)(F)F)cc3)c-2c/c1=N\C1CCC(OC)CC1 (stereo not drawn) yielded an MIC50 of 0.06 µg/mL (≈ 0.102 µM). Work on CC(C)/N=c1\cc2n(-c3ccc(Cl)cc3)c3ccccc3nc-2cc1Nc1ccc(Cl)cc1 [CLOFAZIMINE] yielded an MIC50 of 0.12 µg/mL (≈ 0.253 µM).
